Measurements taken from patent US20110306801A1, “EXTRACTION AND SEPARATION PROCESSES FOR RECOVERY OF ORGANIC SOLUTES FROM FEED SOURCES AND APPARATUSES FOR PERFORMING SAME” (Trans Ionics Corporation, priority 2009, published 2011).
Like-named read-outs stand apart in the source and are kept apart here. One block for each compound: values may come before it.

Legend:
[1] = Extraction of ethanol from water with cetyl alcohol, equilibrium data and distribution coefficient; type: physicochemical; conditions: aqueous ethanol feed, 75° C.
Method: (§1) DC=(Wo/Ws)ext/(Wo/Ww)raff (1)
(§2) The slope of this line is the distribution coefficient.
Cetyl Alcohol as an Extraction Solvent For Ethanol. Cetyl alcohol was used as a solvent for ethanol extraction. Because cetyl alcohol melts between 47° C. and 50° C. and therefore is a solid at both room temperature (25° C.) and typical fermentation temperatures (40° C.), it has been overlooked as an extraction solvent. Cetyl alcohol was tested at 75° C. at a solvent:feed ratio of 5:1.

[2] = ethanol, ABE feed, cetyl alcohol/mixed xylenes 50/50 wt %
[3] = Batch separation of ethanol from xylenes using 5 Å zeolite molecular sieves; type: physicochemical; conditions: 10.0 grams feed (8.00 wt % ethanol, 0.07 wt % water, balance mixed xylenes) with 5.0 gm zeolite, 40° C.
[4] = approximately 6.0 grams 100-120 mesh 5 Å sieves, 10.1 mm ID column, 20.0 ml feed with 7.47 wt % ethanol in xylenes
Method: Commercially available Linde 5 Å molecular sieves containing binder were ground and sieved to 100-120 mesh using standard screens. After activation at 400° C., the sieves were cooled to 150° C. and poured directly into mixed xylenes.
The stopcock was opened and samples of liquid were taken every 10 minutes for analysis by gas chromatography. Data were normalized to produce a dimensionless concentration by dividing each of the outlet ethanol concentrations by that of the feed stream.

[5] = cetyl alcohol/oleic acid 50/50 wt %, 5:1, 75° C.
Method: One measure of the effectiveness of a solvent for extracting solutes is termed the distribution coefficient, which is calculated as follows in Formula (1):
as §1, §2
Mixtures of Cetyl Alcohol and Other Solvents For Extraction of Ethanol. Mixtures of cetyl alcohol with other solvents were used in order to produce a resulting extraction solvent having a lower melting point than pure cetyl alcohol. […] This solvent mixture was tested for ethanol extraction at a solvent:feed ratio of 5:1 at 75° C.

SMILES: CCCCCCCCCCCCCCCCO [Cetyl alcohol]
emulsion formation as extraction solvent [1]: no indication of the formation of emulsions

Extract (Wo/Ws) ([2]; 5:1, 40° C., feed Wo/Ww 0.002): 0.00002 Wo/Ws
Raffinate (Wo/Ww) ([2]; 5:1, 40° C., feed Wo/Ww 0.002): 0.00009 Wo/Ww
Extract (Wo/Ws) ([2]; 5:1, 40° C., feed Wo/Ww 0.03): 0.0005 Wo/Ws
Raffinate (Wo/Ww) ([2]; 5:1, 40° C., feed Wo/Ww 0.03): 0.0025 Wo/Ww
Extract (Wo/Ws) ([2]; 5:1, 40° C., feed Wo/Ww 0.06): 0.0010 Wo/Ws
Raffinate (Wo/Ww) ([2]; 5:1, 40° C., feed Wo/Ww 0.06): 0.0052 Wo/Ww
Extract (Wo/Ws) ([2]; 5:1, 40° C., feed Wo/Ww 0.12): 0.0021 Wo/Ws
Raffinate (Wo/Ww) ([2]; 5:1, 40° C., feed Wo/Ww 0.12): 0.0102 Wo/Ww
Raffinate (Wo/Ww) ([2]; 5:1, 40° C., feed Wo/Ww 0.15): 0.0126 Wo/Ww
Extract (Wo/Ws) ([2]; 5:1, 40° C., feed Wo/Ww 0.19): 0.0032 Wo/Ws
Raffinate (Wo/Ww) ([2]; 5:1, 40° C., feed Wo/Ww 0.19): 0.0152 Wo/Ww
Extract (Wo/Ws) ([2]; 5:1, 75° C., feed Wo/Ww 0.002): 0.00003 Wo/Ws
Raffinate (Wo/Ww) ([2]; 5:1, 75° C., feed Wo/Ww 0.002): 0.00007 Wo/Ww
Extract (Wo/Ws) ([2]; 5:1, 75° C., feed Wo/Ww 0.03): 0.0009 Wo/Ws
Raffinate (Wo/Ww) ([2]; 5:1, 75° C., feed Wo/Ww 0.03): 0.0021 Wo/Ww
Extract (Wo/Ws) ([2]; 5:1, 75° C., feed Wo/Ww 0.06): 0.0012 Wo/Ws
Raffinate (Wo/Ww) ([2]; 5:1, 75° C., feed Wo/Ww 0.06): 0.0043 Wo/Ww
Extract (Wo/Ws) ([2]; 5:1, 75° C., feed Wo/Ww 0.12): 0.0025 Wo/Ws
Raffinate (Wo/Ww) ([2]; 5:1, 75° C., feed Wo/Ww 0.12): 0.0084 Wo/Ww
Extract (Wo/Ws) ([2]; 5:1, 75° C., feed Wo/Ww 0.15): 0.0031 Wo/Ws
Raffinate (Wo/Ww) ([2]; 5:1, 75° C., feed Wo/Ww 0.15): 0.0105 Wo/Ww
Raffinate (Wo/Ww) ([2]; 5:1, 75° C., feed Wo/Ww 0.19): 0.0125 Wo/Ww
ethanol content leveled out after contact with 5 Å zeolite pellets [3]: 1.07 wt %
volume of effluent exited the column before ethanol appeared in the product [4]: 20 mL
Extract (Wo/Ws) ([5]; feed Wo/Ww 0.2000): 0.0316 Wo/Ws
Extract (Wo/Ws) ([5]; feed Wo/Ww 0.5000): 0.0848 Wo/Ws
SMILES: CCO [ethanol]
